Legend:
HDAC7 = target: T1, HDAC7 (Homo sapiens, UniProt Q8WUI4); test: HDAC7 isoform selectivity assay; type: biochemical; settings: Table 2 isoform selectivity; read-out: HDAC Inhibition (IC50 uM) isoform 7
T1 sequence (Q8WUI4 1-952): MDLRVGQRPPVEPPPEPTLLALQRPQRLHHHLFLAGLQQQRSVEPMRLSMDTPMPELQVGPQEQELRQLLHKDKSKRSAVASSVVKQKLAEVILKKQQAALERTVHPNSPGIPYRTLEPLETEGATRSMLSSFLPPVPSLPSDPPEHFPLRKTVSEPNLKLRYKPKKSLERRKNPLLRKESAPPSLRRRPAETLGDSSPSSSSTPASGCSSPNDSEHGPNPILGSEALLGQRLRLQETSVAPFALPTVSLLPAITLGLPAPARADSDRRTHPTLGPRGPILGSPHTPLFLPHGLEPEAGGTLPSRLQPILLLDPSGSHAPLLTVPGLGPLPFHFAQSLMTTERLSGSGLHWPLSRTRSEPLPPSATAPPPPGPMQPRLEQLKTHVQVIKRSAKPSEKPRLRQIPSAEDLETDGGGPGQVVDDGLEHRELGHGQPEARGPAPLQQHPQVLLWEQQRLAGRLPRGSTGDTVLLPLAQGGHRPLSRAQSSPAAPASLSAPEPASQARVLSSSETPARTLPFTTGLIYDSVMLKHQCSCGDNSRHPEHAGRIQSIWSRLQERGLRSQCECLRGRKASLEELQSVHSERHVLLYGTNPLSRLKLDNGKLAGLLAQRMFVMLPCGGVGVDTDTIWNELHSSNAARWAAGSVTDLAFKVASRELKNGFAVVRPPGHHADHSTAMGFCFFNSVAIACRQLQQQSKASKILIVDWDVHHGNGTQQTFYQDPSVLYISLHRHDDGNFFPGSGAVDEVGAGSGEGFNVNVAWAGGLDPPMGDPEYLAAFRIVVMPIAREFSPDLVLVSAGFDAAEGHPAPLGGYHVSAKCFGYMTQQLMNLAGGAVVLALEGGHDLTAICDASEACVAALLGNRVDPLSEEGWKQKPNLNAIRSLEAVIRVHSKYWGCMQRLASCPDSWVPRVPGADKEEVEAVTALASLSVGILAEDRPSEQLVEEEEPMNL
Protocol: The HDAC1, 2, 4, 5, 6, 7, 8, 9, 10, and 11 assays used isolated recombinant human protein; HDAC3/NcoR2 complex was used for the HDAC3 assay. Substrate for HDAC1, 2, 3, 6, 10, and 11 assays is a fluorogenic peptide from p53 residues 379-382 (RHKKAc); substrate for HDAC8 is fluorogenic diacyl peptide based on residues 379-382 of p53 (RHKAcKAc). Acetyl-Lys(trifluoroacetyl)-AMC substrate was used for HDAC4, 5, 7, and 9 assays. Compounds were dissolved in DMSO and tested in 10-dose IC50 mode with 3-fold serial dilution starting at 30 μM. Control Compound Trichostatin A (TSA) was tested in a 10-dose IC50 with 3-fold serial dilution starting at 5 μM. IC50 values were extracted by curve-fitting the dose/response slopes. Assays were performed in duplicate and IC50 values are an average of data from both experiments.

mouse neuronal N2a cells = test: MPP+ neurotoxicity in N2a cells (Presto-Blue); type: cell-based; settings: 5 μM compound, MPP+ 100 μM, 24 h
Protocol: FIG. 2B contains bar graphs showing test compounds at 5 μM protected N2a cells against MPP+(100 μM) insult. Cell viability was measured at 24 h using Presto-Blue assay.
(§1) II-ING-6 and II-ING-66, were tested in neuronal cell lines subjected to H2O2 and MPP+-induced toxicity (Parkinson's disease model), and in a composite model of ischemia-reperfusion injury: oxygen glucose deprivation (OGD). In H2O2-induced neurotoxicity in human neuronal SH-SY5Y cells, neuroprotective properties of compounds II-ING-6 and II-ING-66 were assessed using 24 h pretreatment regimen (FIG. 2A). […] Neuroprotection against OGD is expected to be mediated by HIF-1α and Nrf2. In this assay, after pretreatment of cells 24 h prior to OGD insult, both compounds were neuroprotective (FIG. 3A).

[1] = liver-on-a-chip assay, viability of HepaRG hepatocytes by MTT; type: cell-based; settings: human, HepaRG hepatocytes in liver-on-a-chip, read-out: LC50
SH-SY5Y cells = test: Oxygen glucose deprivation (OGD) in SH-SY5Y cells (MTT); type: cell-based, human; settings: for Neuroprotection against OGD, pretreatment: pretreatment 24 h prior to OGD insult; for Neuroprotection against OGD, post-treatment: treatment after OGD
Protocol: FIG. 3A contains bar graphs showing a concentration dependence of II-ING-6 and II-ING-66 neuroprotection in SH-SY5Y cells subject to OGD: 24 h pretreatment.
FIG. 3B contains bar graphs showing concentration dependencies of II-ING-6 and II-ING-66 neuroprotection in SH-SY5Y cells subject to OGD: treatment post OGD. Cell viability was measured using the MTT assay 24 h post insult.
as §1

Nrf2 target genes = test: In vivo activation of Nrf2 pathway (RT-PCR of target genes); settings: 3 month old male C57BL/6 mice, 25 mg/kg i.p.
Protocol: The expression of Nrf2 target genes was assessed in 3 month old male C57BL/6 mice administered with II-ING-66 (25 mg/kg i.p.). […] These in vivo data support the in vitro observations of HIF-1α and Nrf2 activation by phenylhydroxamate HDAC inhibitors (Gaisina et al, ACS Chem. Neurosci. 2017).

[2] = test system: human neuronal SH-SY5Y cells; test: H2O2-induced neurotoxicity in SH-SY5Y cells (MTT); type: cell-based; settings: 24 h pretreatment, MTT at 24 h
Protocol: FIG. 2A contains bar graphs showing the concentration-dependent neuroprotection of SH-SY5Y cells from H2O2-induced toxicity. Cell viability was measured using the MTT assay at 24 h. […] (B) Test compounds at 5 μM protected N2a cells against MPP+ (100 μM) insult. Cell viability was measured at 24 h using Presto-Blue assay.
as §1

C57BL/6 mice = test: Behavioral screening in the SmartCube (SC) platform; type: in vivo; settings: 50 mg/kg ip
Protocol: FIG. 4 contains the SC signature of II-ING-6 (50 mg/kg, ip) showing anxiolytic activity.
Another evidence that II-ING-6 is can cross the BBB was obtained from SC (Frontiers in Neuroscience 2011, 5 (103), p. 1-4) experiment. SC provides a sequence of challenges to mice and captures more than 2,000 features during a 1 hour testing session. These features are analyzed with computer algorithms and data mining approaches to automate the study of mice behavior and compared to a database of behavioral signatures obtained using a set of diverse reference compounds, including antidepressants, cognitive enhancers, antipsychotics, and anxiolytics. In this assay, C57BL/6 mice were injected with compound II-ING-6 at 50 mg/kg (ip).

Structure (SMILES)	IC50 (HDAC7) [µM]	Protection against MPP+ neurotoxicity (mouse neuronal N2a cells)	CC50 at 48 h [1] [nM]	Neuroprotection against OGD, pretreatment (SH-SY5Y cells)	Neuroprotection against OGD, post-treatment (SH-SY5Y cells)	Hmox-1 expression in the liver (Nrf2 target genes)	Hmox-1 expression in ventral midbrain and striatum (Nrf2 target genes)	NQO1 expression in ventral midbrain and striatum (Nrf2 target genes)	Neuroprotection from H2O2-induced toxicity [2]	SC signature (behavioral class) (C57BL/6 mice)
Cn1c(NCc2ccc(C(=O)NO)cc2)nc2ccccc21 [II-ING-13, N-Hydroxy-4-(((1-methyl-1H-benzo[d]imidazol-2-yl)amino)methyl)benzamide]	0.55									
O=C(NO)c1ccc(CN2C(=O)C(F)(F)c3ccccc32)cc1 [II-ING-66, 4-((3,3-Difluoro-2-oxoindolin-1-yl)methyl)-N-hydroxybenzamide]		significant protection	> 500000	neuroprotective	significant neuroprotection only for compound II-ING-6	significantly upregulated	significant increases	significant increases	Significant neuroprotection	
O=C(NO)c1ccc(CN2CCc3ccc(Cl)cc32)cc1 [II-ING-6, 4-((6-Chloroindolin-1-yl)methyl)-N-hydroxybenzamide]	0.98	significant protection	> 500000	neuroprotective	significant neuroprotection				Significant neuroprotection	anxiolytic effect
O=C(NO)c1ccc(CN2CCc3ccc(F)cc32)cc1 [II-ING-41, 4-((6-Fluoroindolin-1-yl)methyl)-N-hydroxybenzamide]	0.46									
